Legend:
[1] = tested on: SOCS3; experiment: RNAseq gene transcript levels, SOCS3; type: cell-based, human; conditions: 20 μg/mL, 24 hour post treatment
Procedure: (§1) FIG. 9A-B illustrates the effects of 20 µg/mL IRL201805 on JAK-STAT signaling pathway at the transcript and protein level. FIG. 9A provides the RNAseq analysis of gene transcript levels of key signaling genes involved in CD69 activation. FIG. 9B provides the immunoblot of p-STAT5 levels in cell lysates from untreated and IRL1805 treated PBMCs.
(§2) In the present study, the effects of IRL201805 on JAK-STAT signaling pathway were assessed at the transcript and protein level. PBMCs were isolated from a healthy subject and treated for 24 h with 20 μg/mL IRL201805.
(§3) RNAseq analysis was used to assess gene transcript levels of key signaling genes involved in CD69 activation.

[2] = tested on: CD69; experiment: Surface expression of CD69 and CD39 on Tregs from PBMCs, flow cytometry; type: cell-based, human; conditions: 20 μg/mL, 20-72 h at 37° C., PBMCs from two healthy donors
Procedure: FIG. 8 depicts the mean fluorescent intensity of surface expression of CD69 and CD39 on Tregs from peripheral blood mononuclear cells (PBMCs) cultured with 20 μg/mL IRL201805 for 20-72 h at 37° C.
In the present study, PBMCs were isolated from two healthy donors. PBMCs were then incubated with IRL201805 (20 μg/mL) for 20-72 h at 37° C. Flow cytometry was used to measure mean fluorescent intensity and assess surface expression of CD69 and CD39 on Tregs from the PBMCs.

[3] = tested on: p-STAT5; experiment: Colon punch biopsies from IBD patients, p-STAT5 by flow cytometry; type: cell-based, human; conditions: data not shown
Procedure: (§4) In the present study, punch biopsies (2 mm^2) of inflamed and non-inflamed colon tissues were obtained from each consenting IBD patient with hospital ethical approval, as illustrated in FIG. 6A-E. Tissue biopsies were subsequently incubated for 12-14 hours with or without IRL201805 (20 μg/mL) and assessed for CD69+/CD39+ regulatory T cells (Tregs).

[4] = tested on: S100A9; experiment: Mass spec analysis of S100A9 post-translational modification in monocytes; type: cell-based; conditions: human monocytes
Description: (§5) FIG. 10B provides a bar graph showing the effects of IRL201805 on CD69 ligands, galectin-1 (Gal-1) and S100A8/A9, as detected by TMT quantitative proteomics.
(§6) The potential ligands, Gal-1 and S100A8/A9, are known to bind to CD69.43 In order to examine the expression of and influence the ability of T cells to sustain a Treg phenotype, the present study investigated the effects of 1805 on the expression of Gal-1 and S100A8/A9 in APCs (monocytes). Human monocytes isolated from healthy individuals (n=4) were exposed to 1805 for 1 hour at levels of both Gal-1 and S100A8/A9 proteins.

[5] = tested on: RAG2−/− mice; experiment: CD4+CD45RBhigh T cell adoptive transfer murine model of intestinal inflammation; type: in vivo
Description: In the present study, intestinal inflammation is initiated with syngeneic splenic CD4^+CD45RB^high T cell adoptive transfer into T and B cell deficient recipient mice.^37 The CD4^+CD45RB^high T cell population contains mainly naïve T cells primed for activation that are capable of inducing chronic small bowel and colonic inflammation. This animal model allows the modification of key experimental variables, including both innate and adaptive immune cell populations, to answer biologically relevant questions relating to disease pathogenesis. […]
From Day 21 until the end of the experiment on Day 49, animals are monitored daily for clinical signs of colitis to include: bodyweight loss, loose stools and/or diarrhea. On Day 49, animals are culled, the colon dissected out, and colon weight and length measured. […]
From Day 21 until the end of the experiment, animals are monitored daily for clinical signs of colitis to include bodyweight loss, loose stools and/or diarrhea.
(§7) At termination, colon from half the animals in each group are transferred in tissue fixative, then processed for paraffin-embedding in a ‘swiss roll’ format. These samples are sectioned and stained with hematoxylin and eosin (H&E) and up to two sections per animal are scored by a qualified histopathologist according to a semi-quantitative scoring system. […]

[6] = tested on: CD69+/CD39+ regulatory T cells (Tregs); experiment: Colon punch biopsies from IBD patients, flow cytometry of CD69+/CD39+ Tregs; type: cell-based, human; conditions: 20 μg/mL, 12-14 hours, inflamed colonic tissue compared to non-inflamed tissue from the same patient
Procedure: FIG. 6A-E provides an outline of the procedure used to assess the effects of human primary immune cells ex vivo within inflamed and non-inflamed colon tissue treated with IRL201805.
as §4

[7] = tested on: CD69; experiment: Surface CD154 and CD69 activation markers on T-lymphocytes from PBMCs; type: cell-based, human; conditions: 20 μg/mL, 20 hours at 37° C., PBMCs from four healthy donors, p=0.008
Description: FIG. 11A-C provides bar graphs showing the effects of IRL201805 on the expression of surface CD154 and CD69 activation markers on T-lymphocytes from PBMCs: Tregs (FIG. 11A); effector T cells (Teffs; FIG. 11B); and CD8 T cells (FIG. 11C). Results are from PBMCs isolated from four healthy donors. Mean±SD shown. P=values represent paired sample t-test. NS=not significant.
The present study assessed the effects of 1805 on the expression of surface CD154 and CD69 activation markers on T-lymphocytes from PBMC of Tregs, Teffs, and CD8 T cells. PBMCs isolated from four healthy donors were cultured with or without 20 μg/mL IRL201805 for 20 hours at 37° C.

[8] = tested on: C57-bl/6 mice; experiment: Dextran sulphate sodium (DSS)-induced murine model of ulcerative colitis; type: in vivo; conditions: 5% DSS
Procedure: In the present study, the DDS murine model of UC will be used to evaluate the efficacy of BiP analogs such as IRL201805 (SEQ ID NO:1).
Adult C57-bl/6 mice are randomly allocated to experimental groups and allowed to acclimatize for one week. From Day-2, treatments are administered in accordance with the administration schedule below. On Day 0, drinking water is replaced by a 5% dextran sulphate sodium (DSS) in water (excluding group 1 which remains on normal drinking water throughout). Animals are given ad libitum access to the 5% DSS solution. From Day 0 until the end of the experiment on Day 7, animals are monitored daily for clinical signs of colitis to include: bodyweight loss, loose stools and/or diarrhea and presence of occult or gross blood in the stools. […]
From Day 0 until the end of the experiment, animals are monitored daily for clinical signs of colitis to include bodyweight loss, loose stools and/or diarrhea and presence of blood, occult or gross, in the stools.
as §7

[9] = tested on: galectin-1 (Gal-1); experiment: TMT quantitative proteomics of monocyte cell surface, Gal-1; type: cell-based; conditions: human monocytes (n=4), 1 hour
Description: as §5, §6
(§8) The abundance of Gal-1 and S100A8/A9 protein at the cell surface were detected by tandem mass tag (TMT) quantitative proteomics.

[10] = tested on: S100A8/A9; experiment: TMT quantitative proteomics of monocyte cell surface, S100A8/A9; type: cell-based; conditions: human monocytes (n=4), 1 hour
Description: as §5, §6, §8

[11] = tested on: PBMCs; experiment: p-STAT5 status and FoxP3 in T cell subsets of treated PBMCs (Table 4); type: cell-based
Description: In Tregs, CD69 is thought to promote CD39 surface expression, FoxP3 transcription, and STAT5 phosphorylation leading to STAT3 inhibition. The present study assessed the effects of IRL1805 on p-STAT5. […] Treatment of PBMCs with IRL201805 led to changes in p-STAT5 status of CD4/CD8 T cells and increased 3-fold the level of FoxP3 transcription (see Table 4).

[12] = tested on: JAK3; experiment: RNAseq gene transcript levels, JAK3; type: cell-based, human; conditions: 20 μg/mL, 24 hour post treatment
Procedure: as §1, §2, §3

[13] = tested on: STAT5B; experiment: RNAseq gene transcript levels, STAT5B; type: cell-based, human; conditions: monocytes from three healthy individuals
Procedure: as §1
In the present study, the effects of IRL201805 on JAK-STAT signaling pathway were assessed at the transcript and protein level. […]
as §3

[14] = tested on: p-STAT5; experiment: Immunoblot of p-STAT5 in PBMC cell lysates; type: cell-based, human; conditions: 20 μg/mL, 24 hours, compared to untreated PBMCs
Procedure: as §1, §2
Immunoblotting of PBMC cell lysates with recombinant anti-STAT5 (phospho Y694) antibody [E208] (ab32364) (Abcam, ab32364) was used to assess the p-STAT5 levels in from untreated and IRL1805 treated PBMCs.

[15] = tested on: STAT5A; experiment: RNAseq gene transcript levels, STAT5A; type: cell-based, human; conditions: monocytes from three healthy individuals
Procedure: as §1, §2, §3

[16] = tested on: STAT3 phosphorylation; experiment: STAT3 phosphorylation in human lymphocytes (previous unpublished data); type: cell-based

Q: “IRL201805: a modified analog of GRP78 (BiP analog, SEQ ID NO:1) being developed for the treatment of autoimmune disease” was tested. Which “increase of SOCS3 gene transcript level” value [1] did it give?
A: approximately 10 fold

Q: What about the “duration of sustained CD69 expression on CD154- cells” value [2] of the same substance?
A: at least 72 h

Q: And the “p-STAT5 in subsets of immune cells by flow cytometry” value [3]?
A: increased p-STAT5

Q: And the “increase of phosphorylation of S100A9” value ([4]; 1 hour)?
A: 58%

Q: What about the “trimethylation post-translational modifications on threonine 113 on S100A9” value ([4]; mass spec) of the same substance?
A: increased trimethylation

Q: What about the “clinical signs of colitis (bodyweight loss, loose stools and/or diarrhea)” value ([5]; IV from Day 21, dose TBC) of the same substance?
A: significant reduction in clinical signs of colitis

Q: And the histopathology severity scores ([5]; T cell transfer colitis, colon sections H&E, Day 49)?
A: significant reduction in severity scores

Q: What about the “increase in double positive CD69+/CD39+ Tregs” value [6] of the same substance?
A: 20%

Q: And the “increase of CD69 on the cell surface of Tregs” value [7]?
A: 2 fold

Q: And the “clinical signs of colitis (bodyweight loss, loose stools and/or diarrhea)” value ([8]; 1 mg/kg IV Day −2, 0, 3, 6)?
A: significant reduction in clinical signs of colitis

Q: And the histopathology severity scores ([8]; 1 mg/kg IV, colon sections H&E, Day 7)?
A: significant reduction in severity scores

Q: And the “Gal-1 expression on the cell surface” value [9]?
A: not altered

Q: What about the “S100A8/A9 expression on the cell surface” value [10] of the same substance?
A: not altered

Q: And the “p-STAT5 in subsets of immune cells” value ([11]; PBMCs)?
A: increased p-STAT5

Q: What about the “increase of the level of FoxP3 transcription” value ([11]; PBMCs, versus untreated) of the same substance?
A: 3 fold

Q: And the “% CD4+ve” value ([11]; treated PBMCs)?
A: 7.1%

Q: What about the “% CD8+ve” value ([11]; treated PBMCs) of the same substance?
A: 3.2%

Q: What about the “% FoxP3 + Tregs” value ([11]; treated PBMCs) of the same substance?
A: 0.9%

Q: And the “CD25hi/CD127lo Tregs” value ([11]; treated PBMCs)?
A: 3.2

Q: What about the “increase of JAK3 gene transcript level” value [12] of the same substance?
A: approximately 10 fold

Q: What about the “transcript levels of STAT5B” value [13] of the same substance?
A: did not affect

Q: What about the “p-STAT5 levels by immunoblot” value [14] of the same substance?
A: increased levels

Q: And the “transcript levels of STAT5A” value [15]?
A: did not affect

Q: For binding immunoglobulin protein [BiP], which STAT3 phosphorylation [16] is on record?
A: inhibit STAT3 phosphorylation
